# According to US20250206754A1, “PAN-CHEMOKINE ANTAGONISTS FOR USE IN TREATING CANCER AND IMMUNE DISORDERS” ("Micar Innovation" LTD., priority 2022, published 2025):
# Read-outs that look alike come from different tables or passages of the source.
# Columns and labels:
# [1] = Maximal tolerated dose (MTD) study in BALB/c mice; type: in vivo; conditions: daily (QD) oral doses of 30 mg/kg and 150 mg/kg
# Protocol: (§1) Design of the in vivo study: A total of 44 female BALB/c mice (12 mice for maximal tolerance dose (MTD) study; 32 mice for efficacy study) were used in the 4T-1-Luc study. The animals were specific pathogen free and approximately 4-5 weeks old at the initiation of the study.
# MTD studies: Initially, 10 BALB/c mice were used for the maximal tolerated dose (MTD) response study determination. The mice were randomized based on body weight and were treated with Hit 1 compound with daily (QD) oral doses of 30 mg/kg and 150 mg/kg. Body weight was measured daily.
# 4T-1-luc cells = type: in vivo; conditions: for bioluminescence intensity of lung: Day32 after inoculation, ex vivo; for total number of metastasis found by the ex-vivo studies: control group 10; for Metastasis on Liver, mice with metastasis / Metastasis on Liver, total number / Metastasis on Lung, mice with metastasis / Metastasis on Lung, total number / Metastasis on ribs, mice with metastasis / Metastasis on ribs, total number: ex-vivo
# Protocol: as §1
# Murine breast carcinoma cells 4T-1-luc cells used in this study, were cultured in a 37° C. incubator containing 5% CO2 with 10% FBS and 2 μg/mL puromycin in RPMI1640 medium. The cells were sub-cultured within 10 passages before inoculated into the mice. 2*10^5 4T-1-luc cells suspended in 20 uL PBS were orthotopically injected into the 4th fat pat on the right side of each mouse. Before inoculation, mice were pre-anesthetized with 30 mg/kg Zoletil mixed with 10 mg/kg Xylazine and kept anesthetized with 3-4% isoflurane. Injected subcutaneously 20 mg/kg Tolfedine as painkillers once a day for 3 days. The day of cell inoculation was denoted as Day0. On Day3, 16 bearing-tumor mice were randomized into 4 groups (4 mice per group) according to body weight and BLI signal. The information of the preparation of Hit 1 dosing solution is as follow:
# (§2) For 2-({6-phenylthieno[2,3-d]pyrimidin-4-yl}oxy)benzamide (Hit1, MIC5022) 5 mg/kg dose, the preparation was like that: weighed 2.5 mg of Hit 1, added in 0.50 ml of ethanol, vortex or magnetic stirring enough to mix well (all compound dissolved will be better), added in 2.00 ml of PEG400, vortex or magnetic stirring until getting a clear solution (no more than 60° C. water base ultrasonicate may be needed), added 2.50 ml of water to get clear solution. The concentration was 0.5 mg/ml, the storage condition was at 4C temperature and the preparation frequency was each 5 days.
# as §2, with “MIC5022) 30” for “MIC5022) 5”, “weighed 15” for “weighed 2.5”, “was 3” for “was 0.5”, “4C temperature,” for “4C temperature”
# The concentration was 15 mg/ml, the storage condition was at 4C temperature, and the preparation frequency was each 5 days.
# Each mouse has been observed for changes in general appearance and behavior every day for 4 weeks after grouping. The abnormal phenomena were recorded.
# Body weight: Mice were measured and recorded twice a week after grouping, and during the dose period. Animals were also weighed in the event of accidental death or near-death euthanasia. Tumor volume: The tumor volume (V) was calculated as follows: V=(length×width2)/2. Tumor volume was measured twice per week. Tumor growth inhibition (TGI), TGI=(1−(T/C)×100%; T and C as the mean tumor volumes of the treatment and control groups on the measurement day.
# The individual relative tumor volume (RTV) was calculated as follows: RTV=Vt/V0, where Vt was the volume on each day, and V0 was the volume at the beginning of the treatment. IVIS imaging: We used IVIS® In Vivo Imaging Systems (PerkinElmer, Waltham, MA) which allow high sensitivity and high resolution in vivo BLI and fluorescence imaging (FLI) across a wide range of wavelengths. Animals were imaged up to five at a time under 3-4% isoflurane gas anesthesia. Each mouse has been injected with D-Luciferin and imaged 10-15 minutes after the injection. BLI signal was quantified in regions of interest (ROIs) drawn around tumors or tissues ex vivo and the signal is expressed as photons per second, representing the flux radiating omni-directionally from the user-defined region […] post grouping (Day3, Day10, Day14, Day17, Day21, Day24, Day28 and Day31).
# IL-8 release = conditions: Homo sapiens, read-out: EC50, IL8 release
# Protocol: For this purpose a model for the inhibition of CCL2 release from IL-4, IL-13, IL-22 and IFNγ-stimulated primary human keratinocytes (Eczematous inflammation) was used and also an assay for the inhibition of IL-8 release from IL-17A and TNFα (Psoriatic inflammation). […] Finally, migration assay by MB231cell line was performed.
# [2] = G2 5 mg/kg, Day31 after inoculation
# [3] = G3 30 mg/kg, Day31 after inoculation
# [4] = G4 150 mg/kg, Day31 after inoculation
structure (smiles),measurement,setting,value
"NC(=O)c1ccccc1Oc1ncnc2sc(-c3ccccc3)cc12 [Hit 1, 2-({6-phenylthieno[2,3-d]pyrimidin-4-yl}oxy)benzamide]",behavior and side effects,[1],did not show abnormal behavior
same,body weight loss,[1],A significant (>20%) body lost was not observed
same,bioluminescence intensity of lung,4T-1-luc cells; 5 mg/kg,1.07E+06
same,total number of metastasis found by the ex-vivo studies,4T-1-luc cells; 5 mg/kg,3
same,bioluminescence intensity of lung,4T-1-luc cells; 30 mg/kg,1.66E+06
same,total number of metastasis found by the ex-vivo studies,4T-1-luc cells; 30 mg/kg,2
same,bioluminescence intensity of lung,4T-1-luc cells; 150 mg/kg,1.56E+06
same,total number of metastasis found by the ex-vivo studies,4T-1-luc cells; 150 mg/kg,5
same,reduction of the spread of the tumor (bioluminescence vs control),"4T-1-luc cells; 5, 30, 150 mg/kg, Day31",6-10 folds
same,metastasis in liver and ribs,"4T-1-luc cells; 5, 30, 150 mg/kg, ex-vivo images and manual counting",completely eliminated
same,reduction of metastasis development (lung bioluminescence vs control),"4T-1-luc cells; 5, 30 and 150 mg/kg, Day32",about five
same,"Animal bioluminescence imaging intensity, Mean","4T-1-luc cells; G2 5 mg/kg p.o. QD, Day 3",2.07E+07 10^8 p/s
same,"Animal bioluminescence imaging intensity, Mean","4T-1-luc cells; G2 5 mg/kg p.o. QD, Day 10",1.56E+08 10^8 p/s
same,"Animal bioluminescence imaging intensity, Mean","4T-1-luc cells; G2 5 mg/kg p.o. QD, Day 17",3.39E+08 10^8 p/s
same,"Animal bioluminescence imaging intensity, Mean","4T-1-luc cells; G2 5 mg/kg p.o. QD, Day 21",4.78E+08 10^8 p/s
same,"Animal bioluminescence imaging intensity, Mean","4T-1-luc cells; G2 5 mg/kg p.o. QD, Day 24",3.52E+08 10^8 p/s
same,"Animal bioluminescence imaging intensity, Mean","4T-1-luc cells; G2 5 mg/kg p.o. QD, Day 28",4.34E+08 10^8 p/s
same,"Animal bioluminescence imaging intensity, Mean","4T-1-luc cells; G2 5 mg/kg p.o. QD, Day 31",5.01E+08 10^8 p/s
same,bioluminescence intensity,"4T-1-luc cells; G2 5 mg/kg, Day3 after inoculation",0.21*10^7±0.056*10^8 p/s
same,tumor volume (TV),"4T-1-luc cells; G2 5 mg/kg, Day10 after inoculation",86.53±6.03 mm^3
same,bioluminescence intensity,4T-1-luc cells; [2],5.01*10^8±2.67*10^8 p/s
same,relative tumor volume (RTV),4T-1-luc cells; [2],5.99±0.61
same,tumor volume (TV),4T-1-luc cells; [2],515.90±53.18 mm^3
same,"Metastasis on Liver, mice with metastasis",4T-1-luc cells; G2 (5 mg/kg),(0/4 mice)
same,"Metastasis on Liver, total number",4T-1-luc cells; G2 (5 mg/kg),totally 0
same,"Metastasis on Lung, mice with metastasis",4T-1-luc cells; G2 (5 mg/kg),2/4 and (2/4 mice)
same,"Metastasis on Lung, total number",4T-1-luc cells; G2 (5 mg/kg),totally 3
same,"Metastasis on ribs, mice with metastasis",4T-1-luc cells; G2 (5 mg/kg),(0/4 mice)
same,"Metastasis on ribs, total number",4T-1-luc cells; G2 (5 mg/kg),totally 0
same,"TV, RTV and TW compared with G1","4T-1-luc cells; G2, G3 and G4 (5, 30, 150 mg/kg), p>0.05",no significant differences
same,tumor weight (TW),4T-1-luc cells; G3 30 mg/kg,0.95 ± 0.16 g
same,"Animal bioluminescence imaging intensity, Mean","4T-1-luc cells; G3 30 mg/kg p.o. QD, Day 3",2.31E+07 10^8 p/s
same,"Animal bioluminescence imaging intensity, Mean","4T-1-luc cells; G3 30 mg/kg p.o. QD, Day 10",2.71E+08 10^8 p/s
same,"Animal bioluminescence imaging intensity, Mean","4T-1-luc cells; G3 30 mg/kg p.o. QD, Day 17",1.32E+08 10^8 p/s
same,"Animal bioluminescence imaging intensity, Mean","4T-1-luc cells; G3 30 mg/kg p.o. QD, Day 21",1.30E+08 10^8 p/s
same,"Animal bioluminescence imaging intensity, Mean","4T-1-luc cells; G3 30 mg/kg p.o. QD, Day 24",2.08E+08 10^8 p/s
same,"Animal bioluminescence imaging intensity, Mean","4T-1-luc cells; G3 30 mg/kg p.o. QD, Day 28",4.49E+08 10^8 p/s
same,"Animal bioluminescence imaging intensity, Mean","4T-1-luc cells; G3 30 mg/kg p.o. QD, Day 31",3.26E+08 10^8 p/s
same,bioluminescence intensity,"4T-1-luc cells; G3 30 mg/kg, Day3 after inoculation",0.23*10^7±0.075*10^8 p/s
same,tumor volume (TV),"4T-1-luc cells; G3 30 mg/kg, Day10 after inoculation",90.30±7.67 mm^3
same,bioluminescence intensity,4T-1-luc cells; [3],3.26*10^8±0.89*10^8 p/s
same,relative tumor volume (RTV),4T-1-luc cells; [3],5.33±0.64
same,tumor volume (TV),4T-1-luc cells; [3],489.69±85.03 mm^3
same,"Metastasis on Liver, mice with metastasis",4T-1-luc cells; G3 (30 mg/kg),(0/4 mice)
same,"Metastasis on Liver, total number",4T-1-luc cells; G3 (30 mg/kg),totally 0
same,"Metastasis on Lung, mice with metastasis",4T-1-luc cells; G3 (30 mg/kg),2/4 and (2/4 mice)
same,"Metastasis on Lung, total number",4T-1-luc cells; G3 (30 mg/kg),totally 2
same,"Metastasis on ribs, mice with metastasis",4T-1-luc cells; G3 (30 mg/kg),(0/4 mice)
same,"Metastasis on ribs, total number",4T-1-luc cells; G3 (30 mg/kg),totally 0
same,RTV course,"4T-1-luc cells; G3 group 30 mg/kg, after day 24",clear decrease in the RTV
same,tumor weight (TW),4T-1-luc cells; G4 150 mg/kg,1.05 ± 0.19 g
same,bioluminescence intensity,"4T-1-luc cells; G4 150 mg/kg, Day3 after inoculation",0.21*10^7±0.054*10^8 p/s
same,tumor volume (TV),"4T-1-luc cells; G4 150 mg/kg, Day10 after inoculation",85.22±10.26 mm^3
same,bioluminescence intensity,4T-1-luc cells; [4],5.08*10^8±2.16*10^8 p/s
same,relative tumor volume (RTV),4T-1-luc cells; [4],5.92±0.63
same,tumor volume (TV),4T-1-luc cells; [4],515.66±98.37 mm^3
same,"Metastasis on Liver, mice with metastasis",4T-1-luc cells; G4 (150 mg/kg),(0/4 mice)
same,"Metastasis on Liver, total number",4T-1-luc cells; G4 (150 mg/kg),totally 0
same,"Metastasis on Lung, total number",4T-1-luc cells; G4 (150 mg/kg),totally 5
same,"Metastasis on ribs, mice with metastasis",4T-1-luc cells; G4 (150 mg/kg),(0/4 mice)
same,"Metastasis on ribs, total number",4T-1-luc cells; G4 (150 mg/kg),totally 0
same,"Animal bioluminescence imaging intensity, Mean","4T-1-luc cells; Q4 150 mg/kg p.o. QD, Day 3",2.07E+07 10^8 p/s
same,"Animal bioluminescence imaging intensity, Mean","4T-1-luc cells; Q4 150 mg/kg p.o. QD, Day 10",4.97E+07 10^8 p/s
same,"Animal bioluminescence imaging intensity, Mean","4T-1-luc cells; Q4 150 mg/kg p.o. QD, Day 15",1.33E+08 10^8 p/s
same,"Animal bioluminescence imaging intensity, Mean","4T-1-luc cells; Q4 150 mg/kg p.o. QD, Day 17",2.43E+08 10^8 p/s
same,"Animal bioluminescence imaging intensity, Mean","4T-1-luc cells; Q4 150 mg/kg p.o. QD, Day 21",2.94E+08 10^8 p/s
same,"Animal bioluminescence imaging intensity, Mean","4T-1-luc cells; Q4 150 mg/kg p.o. QD, Day 24",3.20E+08 10^8 p/s
same,"Animal bioluminescence imaging intensity, Mean","4T-1-luc cells; Q4 150 mg/kg p.o. QD, Day 28",5.27E+08 10^8 p/s
same,"Animal bioluminescence imaging intensity, Mean","4T-1-luc cells; Q4 150 mg/kg p.o. QD, Day 31",5.08E+08 10^8 p/s
same,death or abnormal behavior during the experiment,"4T-1-luc cells; efficacy study, 5, 30, 150 mg/kg p.o. QD",no mice death or abnormal behavior of mice
same,safety conclusion,"4T-1-luc cells; mouse, in vivo",relatively biologically safe
same,EC50,IL-8 release,733 nM
